Patent publication US7704995B2 (Exelixis, Inc., priority 2003, dated 2010)

Target: T1, Chk1 (Homo sapiens, UniProt O14757)
T1 construct: purchased Upstate Biotechnology
T1 sequence (O14757 1-476): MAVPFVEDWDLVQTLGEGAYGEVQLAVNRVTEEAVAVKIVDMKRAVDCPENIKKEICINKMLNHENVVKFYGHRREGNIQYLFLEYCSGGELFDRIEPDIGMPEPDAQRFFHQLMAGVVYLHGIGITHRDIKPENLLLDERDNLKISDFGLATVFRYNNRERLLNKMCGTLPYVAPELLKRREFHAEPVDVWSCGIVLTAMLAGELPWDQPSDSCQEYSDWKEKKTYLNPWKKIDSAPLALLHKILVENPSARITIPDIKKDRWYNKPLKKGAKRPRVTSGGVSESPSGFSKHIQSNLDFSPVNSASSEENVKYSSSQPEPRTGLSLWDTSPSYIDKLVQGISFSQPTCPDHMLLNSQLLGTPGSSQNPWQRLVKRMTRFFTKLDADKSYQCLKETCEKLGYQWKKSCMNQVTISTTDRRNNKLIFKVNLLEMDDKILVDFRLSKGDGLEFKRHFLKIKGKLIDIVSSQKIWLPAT
Experiment: Chk1 kinase assay: incorporation of γ-33P ATP into immobilized myelin basic protein
Assay type: biochemical
Details: Table 11, Chk1 only; class symbols A-D; read-out: Chk1 IC50
Procedure, shortened: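 Chk1 (10 nM) or Chk2 (20 nM) phosphorylated plate-immobilized myelin basic protein for 1 h at room temperature in Hepes pH 7.6 buffer with MgCl2, DTT, 1% DMSO, γ-33P ATP plus 10 μM (Chk1) or 30 μM (Chk2) unlabeled ATP. Bound radioactivity counted by scintillation; IC50 determined, Ki derivable from IC50.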

| IC50 [nM] | Structure (SMILES) |
| --- | --- |
| < 50 | Nc1cc(-c2n[nH]c(-c3nc(-c4cccc(CN[C@H]5CCc6ccccc65)c4)cnc3N)n2)ccn1 [Example 946, 3-[3-(2-aminopyridin-4-yl)-1H-1,2,4-triazol-5-yl]-5-(3-{[(1S)-2,3-dihydro-1H-inden-1-ylamino]methyl}phenyl)pyrazin-2-amine] |
| < 50 | Nc1ncc(-c2cccc(CN[C@H]3CCc4ccccc43)c2)nc1C(=O)NC1CCCCNC1 (stereo partly drawn) [Example 947, 3-amino-N-azepan-3-yl-6-(3-{[(1S)-2,3-dihydro-1H-inden-1-ylamino]methyl}phenyl)pyrazine-2-carboxamide] |
| < 50 | Nc1ncc(-c2cccc(CNC(=O)c3csc(-c4cccs4)n3)c2)nc1C(=O)N[C@H]1CCCNC1 [Example 948, 3-amino-N-[(3S)-piperidin-3-yl]-6-{3-[({[2-(2-thienyl)-1,3-thiazol-4-yl]carbonyl}amino)methyl]phenyl}pyrazine-2-carboxamide] |
| < 50 | Nc1ncc(-c2cccc(CNC(=O)c3cncc(-c4cccs4)c3)c2)nc1C(=O)N[C@H]1CCCNC1 [Example 949, 3-amino-N-[(3S)-piperidin-3-yl]-6-{3-[({[5-(2-thienyl)pyridin-3-yl]carbonyl}amino)methyl]phenyl}pyrazine-2-carboxamide] |
| < 50 | CC(C)(C)c1ccc(CNC(=O)c2cccc(-c3cnc(N)c(C(=O)N[C@H]4CCCNC4)n3)c2)cc1 [Example 950, 3-amino-6-{3-[({[4-(1,1-dimethylethyl)phenyl]methyl}amino)carbonyl]phenyl}-N-[(3S)-piperidin-3-yl]pyrazine-2-carboxamide] |
| < 50 | Cc1cc(Cl)cc(Cl)c1CNC(=O)c1cccc(-c2cnc(N)c(C(=O)N[C@H]3CCCNC3)n2)c1 [Example 951, 3-amino-6-[3-({[(2,4-dichloro-6-methylphenyl)methyl]amino}carbonyl)phenyl]-N-[(3S)-piperidin-3-yl]pyrazine-2-carboxamide] |
| < 50 | Nc1ncc(-c2cccc(C(=O)NCc3cc(Cl)cc(Cl)c3)c2)nc1C(=O)N[C@H]1CCCNC1 [Example 952, 3-amino-6-[3-({[(3,5-dichlorophenyl)methyl]amino}carbonyl)phenyl]-N-[(3S)-piperidin-3-yl]pyrazine-2-carboxamide] |
| < 50 | Nc1ncc(-c2cccc(CNS(=O)(=O)c3cccs3)c2)nc1C(=O)N[C@H]1CCCNC1 [Example 953, 3-amino-N-[(3S)-piperidin-3-yl]-6-(3-{[(2-thienylsulfonyl)amino]methyl}phenyl)pyrazine-2-carboxamide] |
| < 50 | Nc1ncc(-c2cccc(CNS(=O)(=O)c3ccsc3)c2)nc1C(=O)N[C@H]1CCCNC1 [Example 954, 3-amino-N-[(3S)-piperidin-3-yl]-6-(3-{[(3-thienylsulfonyl)amino]methyl}phenyl)pyrazine-2-carboxamide] |
| < 50 | Nc1ncc(-c2cccc(CNS(=O)(=O)c3ccc(Cl)cc3)c2)nc1C(=O)N[C@H]1CCCNC1 [Example 955, 3-amino-6-[3-({[(4-chlorophenyl)sulfonyl]amino}methyl)phenyl]-N-[(3S)-piperidin-3-yl]pyrazine-2-carboxamide] |
| < 50 | Nc1ncc(-c2cccc(CNC(=O)Nc3ccc4c(c3)OCO4)c2)nc1C(=O)N[C@H]1CCCNC1 [Example 956, 3-amino-6-[3-({[(1,3-benzodioxol-5-ylamino)carbonyl]amino}methyl)phenyl]-N-[(3S)-piperidin-3-yl]pyrazine-2-carboxamide] |
| < 50 | COc1ccc(NC(=O)NCc2cccc(-c3cnc(N)c(C(=O)N[C@H]4CCCNC4)n3)c2)cc1 [Example 957, 3-amino-6-(3-{[({[4-(methyloxy)phenyl]amino}carbonyl)amino]methyl}phenyl)-N-[(3S)-piperidin-3-yl]pyrazine-2-carboxamide] |
| < 50 | Nc1ncc(-c2cccc(CNC(=O)Nc3ccc(F)cc3)c2)nc1C(=O)N[C@H]1CCCNC1 [Example 958, 3-amino-6-{3-[({[(4-fluorophenyl)amino]carbonyl}amino)methyl]phenyl}-N-[(3S)-piperidin-3-yl]pyrazine-2-carboxamide] |
| < 50 | CCN(CC)CCOc1cccc(-c2cnc(N)c(C(=O)N[C@H]3CCCNC3)n2)c1 [Example 959, 3-amino-6-(3-{[2-(diethylamino)ethyl]oxy}phenyl)-N-[(3S)-piperidin-3-yl]pyrazine-2-carboxamide] |
| 50 to 1000 | Nc1ncc(-c2cccc(OCCN3CCOCC3)c2)nc1C(=O)N[C@H]1CCCNC1 [Example 960, 3-amino-6-{3-[(2-morpholin-4-ylethyl)oxy]phenyl}-N-[(3S)-piperidin-3-yl]pyrazine-2-carboxamide] |
| < 50 | COc1cccc(-c2cnc(N)c(C(=O)N[C@H]3CCCNC3)n2)c1 [Example 961, 3-amino-6-[3-(methyloxy)phenyl]-N-[(3S)-piperidin-3-yl]pyrazine-2-carboxamide] |
| < 50 | CCOc1cccc(-c2cnc(N)c(C(=O)N[C@H]3CCCNC3)n2)c1 [Example 962, 3-amino-6-[3-(ethyloxy)phenyl]-N-[(3S)-piperidin-3-yl]pyrazine-2-carboxamide] |
| < 50 | Nc1ncc(-c2cccc(C(=O)NCc3ccc(-c4csnn4)cc3)c2)nc1C(=O)N[C@H]1CCCNC1 [Example 963, 3-amino-N-[(3S)-piperidin-3-yl]-6-{3-[({[4-(1,2,3-thiadiazol-4-yl)phenyl]methyl}amino)carbonyl]phenyl}pyrazine-2-carboxamide] |
| < 50 | CCNCCOc1cccc(-c2cnc(N)c(C(=O)N[C@H]3CCCNC3)n2)c1 [Example 964, 3-amino-6-(3-{[2-(ethylamino)ethyl]oxy}phenyl)-N-[(3S)-piperidin-3-yl]pyrazine-2-carboxamide] |
| < 50 | Nc1ncc(-c2cccc(OCCN3CCN(C(=O)OCc4ccccc4)CC3)c2)nc1C(=O)N[C@H]1CCCNC1 [Example 965, phenylmethyl 4-(2-{[3-(5-amino-6-{[(3S)-piperidin-3-ylamino]carbonyl}pyrazin-2-yl)phenyl]oxy}ethyl)piperazine-1-carboxylate] |
| < 50 | CN(C)c1ccc(NC(=O)NCc2cccc(-c3cnc(N)c(C(=O)N[C@H]4CCCNC4)n3)c2)cc1 [Example 966, 3-amino-6-(3-{[({[4-(dimethylamino)phenyl]amino}carbonyl)amino]methyl}phenyl)-N-[(3S)-piperidin-3-yl]pyrazine-2-carboxamide] |
| < 50 | Nc1ncc(-c2cccc(C(=O)N[C@H]3CCc4ccccc43)c2)nc1C(=O)NC1CCCCNC1 (stereo partly drawn) [Example 967, 3-amino-N-azepan-3-yl-6-(3-{[(1S)-2,3-dihydro-1H-inden-1-ylamino]carbonyl}phenyl)pyrazine-2-carboxamide] |
| < 50 | Nc1ncc(-c2cccc(CN[C@@H]3c4ccccc4C[C@@H]3O)c2)nc1C(=O)N[C@H]1CCCNC1 [Example 968, 3-amino-6-[3-({[(1R,2S)-2-hydroxy-2,3-dihydro-1H-inden-1-yl]amino}methyl)phenyl]-N-[(3S)-piperidin-3-yl]pyrazin-2-carboxamide] |
| 1000 to 10000 | Nc1ncc(-c2cccc(C(=O)N[C@H]3c4ccccc4C[C@@H]3O)c2)nc1C(=O)N[C@H]1CCCCN(Cc2ccccc2)C1 [Example 969, 3-amino-6-[3-({[(1S,2S)-2-hydroxy-2,3-dihydro-1H-inden-1-yl]amino}carbonyl)phenyl]-N-[(3S)-1-(phenylmethyl)azepan-3-yl]pyrazine-2-carboxamide] |
| < 50 | Nc1ncc(-c2cccc(C(=O)N[C@H]3c4ccccc4C[C@@H]3O)c2)nc1C(=O)N[C@H]1CCCCNC1 [Example 970, 3-amino-N-[(3S)-azepan-3-yl]-6-[3({[(1S,2S)-2-hydroxy-2,3-dihydro-1H-inden-1-yl]amino}carbonyl)phenyl]pyrazine-2-carboxamide] |
| < 50 | Nc1ncc(-c2cccc(CNC(=O)Nc3ccc(Cl)cc3)c2)nc1C(=O)N[C@H]1CCCNC1 [Example 971, 3-amino-6-{3-[({[(4-chlorophenyl)amino]carbonyl}amino)methyl]phenyl}-N-[(3S)-piperidin-3-yl]pyrazine-2-carboxamide] |
| 50 to 1000 | Nc1ncc(-c2cccc(C(=O)N[C@H]3CCc4ccccc43)c2)nc1C(=O)N[C@H]1CCCCN(Cc2ccccc2)C1 [Example 972, 3-amino-6-(3-{[(1S)-2,3-dihydro-1H-inden-1-ylamino]carbonyl}phenyl)-N-[(3S)-1-(phenylmethyl)azepan-3-yl]pyrazine-2-carboxamide] |
| < 50 | Nc1ncc(-c2cccc(C(=O)N[C@H]3CCc4ccccc43)c2)nc1C(=O)N[C@H]1CCCCNC1 [Example 973, 3-amino-N-[(3S)-azepan-3-yl]-6-(3{[(1S)-2,3-dihydro-1H-inden-1-ylamino]carbonyl}phenyl)pyrazine-2-carboxamide] |
| < 50 | Cc1cccc(-c2cnc(N)c(C(=O)N[C@H]3CCCCNC3)n2)c1 [Example 974, 3-amino-N-[(3S)-azepan-3-yl]-6-(3-methylphenyl)pyrazine-2-carboxamide] |
| < 50 | Cc1ccccc1CC(=O)Nc1cccc(-c2cnc(N)c(C(=O)N[C@H]3CCCNC3)n2)c1 [Example 975, 3-amino-6-(3-{[(2-methylphenyl)acetyl]amino}phenyl)-N-[(3S)-piperidin-3-yl]pyrazine-2-carboxamide] |
